Source: BindingDB's records for doi:10.1016/j.bmc.2006.10.050 (Paradigm Pharmaceuticals, 2007)

How the values were obtained:
[1] = target: Protein-tyrosine kinase 6 (Homo sapiens, UniProt Q13882); experiment: Kinase Selectivity Assay
Excerpt: (§1) The specificity of LFM-A13 was further examined against a broad panel of serine-threonine kinases and tyrosine kinases using the KinaseProfiler Assay protocols from Upstate (Charlottesville, Virginia).

[2] = target: Hepatocyte growth factor receptor (Homo sapiens, UniProt P08581); experiment: Kinase Selectivity Assay
Sequence of Hepatocyte growth factor receptor (P08581 whole entry): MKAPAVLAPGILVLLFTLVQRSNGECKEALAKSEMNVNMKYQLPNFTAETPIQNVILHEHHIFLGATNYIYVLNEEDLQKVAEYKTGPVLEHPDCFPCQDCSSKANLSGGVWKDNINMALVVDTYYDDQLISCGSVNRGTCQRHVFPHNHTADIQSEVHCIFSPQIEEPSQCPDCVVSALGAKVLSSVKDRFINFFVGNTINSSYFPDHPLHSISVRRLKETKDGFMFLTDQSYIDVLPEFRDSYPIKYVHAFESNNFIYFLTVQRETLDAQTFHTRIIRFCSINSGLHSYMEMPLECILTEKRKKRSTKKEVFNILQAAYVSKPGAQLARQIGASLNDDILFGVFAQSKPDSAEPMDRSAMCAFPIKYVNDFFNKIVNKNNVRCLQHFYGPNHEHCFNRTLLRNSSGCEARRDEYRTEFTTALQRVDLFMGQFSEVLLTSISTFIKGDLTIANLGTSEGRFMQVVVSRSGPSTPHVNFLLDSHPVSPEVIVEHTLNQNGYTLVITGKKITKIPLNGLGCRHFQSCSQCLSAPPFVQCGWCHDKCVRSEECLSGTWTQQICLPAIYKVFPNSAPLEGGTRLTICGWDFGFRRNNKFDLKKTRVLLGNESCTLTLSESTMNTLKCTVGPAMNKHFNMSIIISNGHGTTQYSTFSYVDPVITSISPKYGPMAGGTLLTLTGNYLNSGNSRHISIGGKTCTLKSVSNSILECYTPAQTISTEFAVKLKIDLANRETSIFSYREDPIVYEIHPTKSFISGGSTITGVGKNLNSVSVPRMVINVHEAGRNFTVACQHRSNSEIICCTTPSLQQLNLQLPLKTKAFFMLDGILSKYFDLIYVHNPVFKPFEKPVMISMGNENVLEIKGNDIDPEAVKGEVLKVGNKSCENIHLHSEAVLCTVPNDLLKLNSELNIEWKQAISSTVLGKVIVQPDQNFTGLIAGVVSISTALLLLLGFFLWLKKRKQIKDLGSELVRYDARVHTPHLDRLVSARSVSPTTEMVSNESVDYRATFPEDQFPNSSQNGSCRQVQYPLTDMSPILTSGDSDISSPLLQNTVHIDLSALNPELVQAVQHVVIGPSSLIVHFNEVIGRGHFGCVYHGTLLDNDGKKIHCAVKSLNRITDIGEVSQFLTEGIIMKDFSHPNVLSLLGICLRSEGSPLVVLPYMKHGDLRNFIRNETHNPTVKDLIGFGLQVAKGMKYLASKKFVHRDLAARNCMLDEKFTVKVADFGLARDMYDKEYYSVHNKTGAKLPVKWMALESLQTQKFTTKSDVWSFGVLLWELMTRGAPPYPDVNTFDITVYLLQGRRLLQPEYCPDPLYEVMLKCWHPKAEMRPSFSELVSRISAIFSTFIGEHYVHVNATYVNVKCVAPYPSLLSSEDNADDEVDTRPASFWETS
Excerpt: as §1

[3] = target: T1, Cytoplasmic tyrosine-protein kinase BMX (Homo sapiens, UniProt P51813); experiment: Kinase Selectivity Assay
T1 sequence (P51813 whole entry): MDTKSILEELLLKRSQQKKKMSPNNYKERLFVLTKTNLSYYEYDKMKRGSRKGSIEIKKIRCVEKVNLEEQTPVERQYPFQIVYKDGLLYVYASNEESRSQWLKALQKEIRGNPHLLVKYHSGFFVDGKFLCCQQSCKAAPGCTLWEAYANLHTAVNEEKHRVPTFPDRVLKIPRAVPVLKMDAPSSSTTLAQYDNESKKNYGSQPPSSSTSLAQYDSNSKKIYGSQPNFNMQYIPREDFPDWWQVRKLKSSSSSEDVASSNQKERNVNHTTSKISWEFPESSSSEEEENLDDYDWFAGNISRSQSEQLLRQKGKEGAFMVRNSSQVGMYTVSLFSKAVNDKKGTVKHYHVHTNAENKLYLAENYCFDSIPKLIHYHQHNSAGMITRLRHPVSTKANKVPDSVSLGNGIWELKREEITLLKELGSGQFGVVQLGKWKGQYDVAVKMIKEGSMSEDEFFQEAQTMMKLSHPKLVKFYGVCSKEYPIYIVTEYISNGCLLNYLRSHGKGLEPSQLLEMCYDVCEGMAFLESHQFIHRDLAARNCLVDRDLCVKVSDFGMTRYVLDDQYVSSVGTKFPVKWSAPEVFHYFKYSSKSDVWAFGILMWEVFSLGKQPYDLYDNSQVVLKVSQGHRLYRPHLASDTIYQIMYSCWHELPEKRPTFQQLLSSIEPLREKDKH
Excerpt: as §1

[4] = target: T2, Serine/threonine-protein kinase Chk1 (Homo sapiens, UniProt O14757); experiment: Kinase Selectivity Assay
T2 sequence (O14757 whole entry): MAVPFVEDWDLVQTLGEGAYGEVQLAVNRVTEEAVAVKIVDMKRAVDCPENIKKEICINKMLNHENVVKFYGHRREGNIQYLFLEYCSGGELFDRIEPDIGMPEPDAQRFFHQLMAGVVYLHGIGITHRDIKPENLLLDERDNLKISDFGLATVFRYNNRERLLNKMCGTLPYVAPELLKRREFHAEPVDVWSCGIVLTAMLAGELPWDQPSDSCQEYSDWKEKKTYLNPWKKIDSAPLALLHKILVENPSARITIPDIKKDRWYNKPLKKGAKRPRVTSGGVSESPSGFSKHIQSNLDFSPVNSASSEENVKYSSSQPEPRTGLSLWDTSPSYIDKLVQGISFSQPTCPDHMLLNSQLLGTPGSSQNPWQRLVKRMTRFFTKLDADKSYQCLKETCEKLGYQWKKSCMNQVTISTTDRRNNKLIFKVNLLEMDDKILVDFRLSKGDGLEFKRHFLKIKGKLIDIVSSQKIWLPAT
Excerpt: as §1

[5] = target: Cyclin-dependent kinase/G2/mitotic-specific cyclin- 1 (Homo sapiens, UniProt P06493); experiment: Kinase Selectivity Assay
Sequence of Cyclin-dependent kinase/G2/mitotic-specific cyclin- 1 (P06493 whole entry): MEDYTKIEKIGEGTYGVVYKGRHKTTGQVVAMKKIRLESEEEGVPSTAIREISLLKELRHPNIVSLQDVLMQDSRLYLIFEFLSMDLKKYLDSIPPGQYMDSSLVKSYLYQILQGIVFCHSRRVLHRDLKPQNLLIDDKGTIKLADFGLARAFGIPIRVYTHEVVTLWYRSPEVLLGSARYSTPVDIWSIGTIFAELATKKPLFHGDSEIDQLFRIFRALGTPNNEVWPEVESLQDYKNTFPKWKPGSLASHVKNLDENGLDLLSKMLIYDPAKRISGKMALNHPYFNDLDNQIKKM
Sequence of Cyclin-dependent kinase/G2/mitotic-specific cyclin- 1 (P14635 whole entry, further chain): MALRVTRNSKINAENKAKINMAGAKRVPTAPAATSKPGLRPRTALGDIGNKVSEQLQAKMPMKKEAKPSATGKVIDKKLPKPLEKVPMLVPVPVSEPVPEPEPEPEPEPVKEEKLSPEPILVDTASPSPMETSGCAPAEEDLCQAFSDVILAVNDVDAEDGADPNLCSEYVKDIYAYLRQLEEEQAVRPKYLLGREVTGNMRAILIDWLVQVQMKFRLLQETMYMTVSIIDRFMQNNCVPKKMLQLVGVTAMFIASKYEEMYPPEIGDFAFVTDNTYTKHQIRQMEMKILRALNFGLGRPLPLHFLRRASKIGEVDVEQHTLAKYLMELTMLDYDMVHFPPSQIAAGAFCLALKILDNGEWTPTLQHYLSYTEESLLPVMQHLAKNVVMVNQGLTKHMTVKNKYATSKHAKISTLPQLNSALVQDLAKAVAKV
Excerpt: as §1

[6] = target: Tyrosine-protein kinase Fyn (Homo sapiens, UniProt P06241); experiment: Kinase Selectivity Assay
Sequence of Tyrosine-protein kinase Fyn (P06241 whole entry): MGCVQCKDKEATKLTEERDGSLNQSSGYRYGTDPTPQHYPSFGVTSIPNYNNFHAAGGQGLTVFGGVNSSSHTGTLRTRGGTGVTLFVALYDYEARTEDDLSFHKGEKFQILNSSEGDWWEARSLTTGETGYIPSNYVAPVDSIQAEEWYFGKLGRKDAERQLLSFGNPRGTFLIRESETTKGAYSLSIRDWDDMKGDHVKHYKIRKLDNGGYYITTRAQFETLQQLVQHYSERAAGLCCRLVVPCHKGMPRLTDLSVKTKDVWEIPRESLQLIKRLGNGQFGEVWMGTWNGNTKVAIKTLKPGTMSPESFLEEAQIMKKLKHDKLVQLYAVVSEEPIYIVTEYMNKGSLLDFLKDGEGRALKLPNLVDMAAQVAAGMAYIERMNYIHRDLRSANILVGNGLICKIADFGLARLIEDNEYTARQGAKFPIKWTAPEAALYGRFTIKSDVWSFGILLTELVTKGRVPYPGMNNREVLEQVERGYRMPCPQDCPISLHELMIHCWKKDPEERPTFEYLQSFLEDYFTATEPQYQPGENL
Excerpt: as §1

[7] = target: Mast/stem cell growth factor receptor Kit (Homo sapiens, UniProt P10721); experiment: Kinase Selectivity Assay
Sequence of Mast/stem cell growth factor receptor Kit (P10721 whole entry): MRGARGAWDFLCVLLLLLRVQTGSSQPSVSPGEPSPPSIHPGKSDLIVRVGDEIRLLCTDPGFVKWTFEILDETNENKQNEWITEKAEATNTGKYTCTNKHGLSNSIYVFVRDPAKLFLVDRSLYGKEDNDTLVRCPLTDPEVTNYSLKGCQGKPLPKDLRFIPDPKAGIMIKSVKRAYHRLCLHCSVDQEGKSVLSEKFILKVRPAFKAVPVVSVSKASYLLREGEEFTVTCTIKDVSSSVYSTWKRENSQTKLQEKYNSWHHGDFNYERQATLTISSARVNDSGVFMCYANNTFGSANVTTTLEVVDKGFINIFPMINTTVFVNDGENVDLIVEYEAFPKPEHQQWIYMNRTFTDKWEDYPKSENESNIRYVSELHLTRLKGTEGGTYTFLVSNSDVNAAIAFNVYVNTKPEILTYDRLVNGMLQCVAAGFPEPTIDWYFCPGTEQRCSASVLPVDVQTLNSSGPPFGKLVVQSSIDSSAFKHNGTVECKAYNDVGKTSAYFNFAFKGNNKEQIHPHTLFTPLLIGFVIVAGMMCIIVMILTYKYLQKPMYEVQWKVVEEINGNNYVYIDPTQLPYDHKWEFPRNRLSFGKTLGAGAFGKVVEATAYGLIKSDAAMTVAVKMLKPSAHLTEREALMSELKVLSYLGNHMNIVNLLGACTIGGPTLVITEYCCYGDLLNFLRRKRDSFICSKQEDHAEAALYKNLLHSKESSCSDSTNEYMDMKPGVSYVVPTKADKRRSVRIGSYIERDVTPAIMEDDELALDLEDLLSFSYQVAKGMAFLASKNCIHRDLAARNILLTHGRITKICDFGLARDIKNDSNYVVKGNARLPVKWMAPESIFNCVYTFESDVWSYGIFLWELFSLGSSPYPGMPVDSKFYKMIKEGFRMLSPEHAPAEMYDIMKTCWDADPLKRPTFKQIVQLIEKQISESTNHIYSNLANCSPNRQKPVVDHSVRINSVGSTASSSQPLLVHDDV
Excerpt: as §1

[8] = target: Cyclin-A2/Cyclin-dependent kinase 2 (Homo sapiens, UniProt P24941); experiment: Kinase Selectivity Assay
Excerpt: as §1

[9] = target: Serine/threonine-protein kinase PLK3 (Homo sapiens, UniProt Q9H4B4); experiment: PLK3 Kinase Inhibition Assay; conditions: pH 7; 22 °C
Sequence of Serine/threonine-protein kinase PLK3 (Q9H4B4 whole entry): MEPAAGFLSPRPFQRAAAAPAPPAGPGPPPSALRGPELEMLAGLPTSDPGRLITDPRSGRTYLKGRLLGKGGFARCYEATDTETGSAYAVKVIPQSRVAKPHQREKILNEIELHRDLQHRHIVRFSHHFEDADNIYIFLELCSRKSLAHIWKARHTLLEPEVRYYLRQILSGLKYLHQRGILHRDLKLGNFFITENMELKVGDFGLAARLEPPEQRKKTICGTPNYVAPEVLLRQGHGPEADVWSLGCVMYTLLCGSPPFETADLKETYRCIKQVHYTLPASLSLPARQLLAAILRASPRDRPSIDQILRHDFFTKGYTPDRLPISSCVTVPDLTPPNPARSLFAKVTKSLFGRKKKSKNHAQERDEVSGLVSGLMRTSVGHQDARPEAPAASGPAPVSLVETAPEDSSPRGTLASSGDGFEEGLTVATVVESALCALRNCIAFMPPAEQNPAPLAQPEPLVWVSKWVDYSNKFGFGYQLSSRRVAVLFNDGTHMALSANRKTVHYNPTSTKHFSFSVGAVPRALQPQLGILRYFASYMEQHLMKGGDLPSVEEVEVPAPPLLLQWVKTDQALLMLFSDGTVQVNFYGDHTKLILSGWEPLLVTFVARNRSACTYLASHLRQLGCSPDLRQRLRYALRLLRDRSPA
Description: The mode of human PLK3 inhibition by LFM-A13 was examined in titration experiments using increasing concentrations of [gamma-32P]ATP and purified N-terminal His6-tagged recombinant human PLK3. The Ki of PLK3 by LFM-A13 was calculated from the reciprocal plots of the intensity of phosphorylation of the substrate versus the concentration of the inhibitor. From this Dixon plot, the Ki represents the dissociation constants of the EI complex, which is determined by the point of linear intersection.

[10] = target: Serine/threonine-protein kinase PLK1 (Xenopus laevis, UniProt P70032); experiment: Plx1 Kinase Inhibition Assay; conditions: pH 7.5; 22 °C
Description: Purified Plx1 was first incubated with different concentrations of LFM-A13. The substrate, GST-Cdc25 peptide (254-316) and [gamma-32P]ATP were added and the kinase reaction allowed to proceed for 15 min at room temperature. After incubation, incorporation of radioactivity to the substrate was further quantified.

Sequence of Protein-tyrosine kinase 6 (Q13882 whole entry): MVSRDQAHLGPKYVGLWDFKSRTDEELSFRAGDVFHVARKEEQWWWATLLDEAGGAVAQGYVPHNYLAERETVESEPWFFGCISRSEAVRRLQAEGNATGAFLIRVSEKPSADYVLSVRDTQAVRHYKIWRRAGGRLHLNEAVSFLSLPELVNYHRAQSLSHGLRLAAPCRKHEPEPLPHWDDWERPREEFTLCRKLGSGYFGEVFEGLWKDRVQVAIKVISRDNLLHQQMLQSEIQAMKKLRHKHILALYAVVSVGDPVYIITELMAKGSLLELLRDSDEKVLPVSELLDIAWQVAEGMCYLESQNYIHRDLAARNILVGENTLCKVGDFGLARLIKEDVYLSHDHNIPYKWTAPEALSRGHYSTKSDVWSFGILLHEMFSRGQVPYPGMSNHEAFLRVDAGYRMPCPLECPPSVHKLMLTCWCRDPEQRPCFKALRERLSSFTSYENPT

For `CC(=O)C(C#N)C(=O)Nc1cc(Br)ccc1Br` (stereo unspecified), the IC50 [1] was 267 µM, the IC50 [2] was 215 µM and the IC50 [3] was 281 µM. It also gave an IC50 [4] greater than 500 µM, an IC50 [5] greater than 500 µM and an IC50 [6] of 240 µM. For the same molecule, the IC50 [7] was greater than 500 µM, the IC50 [8] was greater than 500 µM and the IC50 [9] was 61 µM. It also gave a Ki [9] of 7.2 µM and an IC50 [10] of 10 µM.
